How the values were obtained:
[1] = biological target: HIPK1 (human) (UniProt Q86Z02); experiment: SelectScreen, TR FRET
[2] = biological target: HIPK2 (human) (UniProt Q9H2X6); experiment: SelectScreen, TR FRET
[3] = tested on: PIK3CA (human), P42336 [E545K]; experiment: KINOMEscan competition binding; settings: compound 10.0 µM
[4] = biological target: TGFBR2 (human) (UniProt P37173); experiment: KINOMEscan competition binding; settings: compound 10.0 µM
[5] = biological target: CSNK2A2 (human) (UniProt P19784); experiment: KINOMEscan competition binding; settings: compound 10.0 µM
[6] = biological target: RPS6KA4 KD2 (human) (UniProt O75676); experiment: KINOMEscan competition binding; settings: compound 10.0 µM
[7] = biological target: PIM3 (human) (UniProt Q86V86); experiment: KINOMEscan competition binding; settings: compound 10.0 µM
[8] = biological target: PIM1 (human) (UniProt P11309); experiment: KINOMEscan competition binding; settings: compound 10.0 µM
[9] = biological target: STK17A (human) (UniProt Q9UEE5); experiment: KINOMEscan competition binding; settings: compound 10.0 µM
[10] = biological target: MINK1 (human) (UniProt Q8N4C8); experiment: KINOMEscan competition binding; settings: compound 10.0 µM
[11] = biological target: PIM2 (human) (UniProt Q9P1W9); experiment: KINOMEscan competition binding; settings: compound 10.0 µM
[12] = biological target: CDK7 (human) (UniProt P50613); experiment: KINOMEscan competition binding; settings: compound 10.0 µM
[13] = biological target: MAPK15 (human) (UniProt Q8TD08); experiment: KINOMEscan competition binding; settings: compound 10.0 µM
[14] = biological target: HIPK1 (human) (UniProt Q86Z02); experiment: KINOMEscan competition binding; settings: compound 10.0 µM
[15] = biological target: PIK3CG (human) (UniProt P48736); experiment: KINOMEscan competition binding; settings: compound 10.0 µM
[16] = biological target: STK17B (human) (UniProt O94768); experiment: KINOMEscan competition binding; settings: compound 10.0 µM
[17] = biological target: PIM1 (human) (UniProt P11309); experiment: SelectScreen, TR FRET
[18] = biological target: PIM2 (human) (UniProt Q9P1W9); experiment: SelectScreen, TR FRET
[19] = biological target: PTK2 (human) (UniProt Q05397); experiment: KINOMEscan competition binding; settings: compound 10.0 µM
[20] = biological target: STK33 (human) (UniProt Q9BYT3); experiment: KINOMEscan competition binding; settings: compound 10.0 µM
[21] = biological target: GAK (human) (UniProt O14976); experiment: KINOMEscan competition binding; settings: compound 10.0 µM
[22] = biological target: PTK2B (human) (UniProt Q14289); experiment: KINOMEscan competition binding; settings: compound 10.0 µM
[23] = biological target: TTK (human) (UniProt P33981); experiment: KINOMEscan competition binding
[24] = biological target: PLK3 (human) (UniProt Q9H4B4); experiment: KINOMEscan competition binding; settings: compound 10.0 µM
[25] = tested on: EGFR (human), P00533 [P753S; 747-752 del]; experiment: KINOMEscan competition binding; settings: compound 10.0 µM
[26] = tested on: EGFR (human), P00533 [747-751 del / S ins]; experiment: KINOMEscan competition binding; settings: compound 10.0 µM
[27] = tested on: EGFR (human), P00533 [A750P; 747-749 del]; experiment: KINOMEscan competition binding; settings: compound 10.0 µM
[28] = biological target: MYLK (human) (UniProt Q15746); experiment: KINOMEscan competition binding; settings: compound 10.0 µM
[29] = tested on: EGFR (human), P00533 [752-759 del]; experiment: KINOMEscan competition binding; settings: compound 10.0 µM
[30] = biological target: DAPK2 (human) (UniProt Q9UIK4); experiment: KINOMEscan competition binding; settings: compound 10.0 µM
[31] = tested on: EGFR (human), P00533 [G719C; 746-750 del]; experiment: KINOMEscan competition binding; settings: compound 10.0 µM
[32] = biological target: PLK4 (human) (UniProt O00444); experiment: KINOMEscan competition binding; settings: compound 10.0 µM
[33] = biological target: PLK1 (human) (UniProt P53350); experiment: KINOMEscan competition binding; settings: compound 10.0 µM
[34] = biological target: TNK1 (human) (UniProt Q13470); experiment: KINOMEscan competition binding; settings: compound 10.0 µM
[35] = biological target: TTK (human) (UniProt P33981); experiment: SelectScreen, TR FRET

PIM2 (human), sequence (Q9P1W9 whole entry, looked up): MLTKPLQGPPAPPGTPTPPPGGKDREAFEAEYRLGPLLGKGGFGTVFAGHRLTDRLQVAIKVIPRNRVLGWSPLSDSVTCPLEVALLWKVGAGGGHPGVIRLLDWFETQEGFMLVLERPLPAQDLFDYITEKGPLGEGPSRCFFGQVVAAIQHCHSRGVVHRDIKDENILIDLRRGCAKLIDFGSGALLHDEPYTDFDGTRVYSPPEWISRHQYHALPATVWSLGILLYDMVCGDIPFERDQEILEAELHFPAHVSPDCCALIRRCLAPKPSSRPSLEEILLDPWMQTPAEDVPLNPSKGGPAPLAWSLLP
PIM1 (human), sequence (P11309 whole entry, looked up): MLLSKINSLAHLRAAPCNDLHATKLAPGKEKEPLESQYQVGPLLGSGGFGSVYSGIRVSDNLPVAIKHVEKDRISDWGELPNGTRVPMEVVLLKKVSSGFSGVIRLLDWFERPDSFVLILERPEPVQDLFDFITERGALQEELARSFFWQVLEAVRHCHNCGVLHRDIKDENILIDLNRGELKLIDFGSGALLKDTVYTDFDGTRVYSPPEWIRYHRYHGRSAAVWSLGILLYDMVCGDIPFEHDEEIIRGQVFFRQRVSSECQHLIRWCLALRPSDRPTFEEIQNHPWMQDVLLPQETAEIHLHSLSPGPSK
HIPK2 (human), sequence (Q9H2X6 whole entry, looked up): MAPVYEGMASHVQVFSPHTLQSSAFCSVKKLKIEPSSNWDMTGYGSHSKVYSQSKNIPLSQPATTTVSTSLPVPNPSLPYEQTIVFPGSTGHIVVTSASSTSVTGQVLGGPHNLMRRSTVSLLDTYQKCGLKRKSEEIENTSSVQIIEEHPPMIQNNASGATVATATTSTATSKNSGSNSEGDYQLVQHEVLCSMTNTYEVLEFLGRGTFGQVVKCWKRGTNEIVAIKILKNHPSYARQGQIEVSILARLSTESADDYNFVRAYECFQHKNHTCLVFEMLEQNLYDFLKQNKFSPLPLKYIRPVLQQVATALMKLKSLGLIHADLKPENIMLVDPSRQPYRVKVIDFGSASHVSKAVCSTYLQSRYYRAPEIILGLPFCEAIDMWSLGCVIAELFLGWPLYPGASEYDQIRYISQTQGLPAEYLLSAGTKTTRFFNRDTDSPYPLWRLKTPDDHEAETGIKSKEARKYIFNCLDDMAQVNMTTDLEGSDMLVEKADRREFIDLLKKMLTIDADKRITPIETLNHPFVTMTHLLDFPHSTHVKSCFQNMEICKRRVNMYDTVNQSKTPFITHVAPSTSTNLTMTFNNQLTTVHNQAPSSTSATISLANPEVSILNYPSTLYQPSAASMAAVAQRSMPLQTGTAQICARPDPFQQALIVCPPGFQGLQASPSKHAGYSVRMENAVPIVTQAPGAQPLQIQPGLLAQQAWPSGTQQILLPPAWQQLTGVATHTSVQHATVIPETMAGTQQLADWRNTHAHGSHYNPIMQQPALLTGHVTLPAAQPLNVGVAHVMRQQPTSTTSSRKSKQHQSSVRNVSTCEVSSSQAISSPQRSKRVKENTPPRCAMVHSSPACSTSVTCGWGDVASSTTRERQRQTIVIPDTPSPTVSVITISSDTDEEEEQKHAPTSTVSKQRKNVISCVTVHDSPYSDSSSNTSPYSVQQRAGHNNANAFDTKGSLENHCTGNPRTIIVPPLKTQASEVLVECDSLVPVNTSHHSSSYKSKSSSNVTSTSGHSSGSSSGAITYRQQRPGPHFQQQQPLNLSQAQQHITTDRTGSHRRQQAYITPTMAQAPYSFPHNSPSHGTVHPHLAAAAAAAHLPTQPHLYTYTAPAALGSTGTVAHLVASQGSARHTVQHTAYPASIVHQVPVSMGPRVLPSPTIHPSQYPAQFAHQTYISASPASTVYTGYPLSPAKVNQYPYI
TTK (human), sequence (P33981 whole entry, looked up): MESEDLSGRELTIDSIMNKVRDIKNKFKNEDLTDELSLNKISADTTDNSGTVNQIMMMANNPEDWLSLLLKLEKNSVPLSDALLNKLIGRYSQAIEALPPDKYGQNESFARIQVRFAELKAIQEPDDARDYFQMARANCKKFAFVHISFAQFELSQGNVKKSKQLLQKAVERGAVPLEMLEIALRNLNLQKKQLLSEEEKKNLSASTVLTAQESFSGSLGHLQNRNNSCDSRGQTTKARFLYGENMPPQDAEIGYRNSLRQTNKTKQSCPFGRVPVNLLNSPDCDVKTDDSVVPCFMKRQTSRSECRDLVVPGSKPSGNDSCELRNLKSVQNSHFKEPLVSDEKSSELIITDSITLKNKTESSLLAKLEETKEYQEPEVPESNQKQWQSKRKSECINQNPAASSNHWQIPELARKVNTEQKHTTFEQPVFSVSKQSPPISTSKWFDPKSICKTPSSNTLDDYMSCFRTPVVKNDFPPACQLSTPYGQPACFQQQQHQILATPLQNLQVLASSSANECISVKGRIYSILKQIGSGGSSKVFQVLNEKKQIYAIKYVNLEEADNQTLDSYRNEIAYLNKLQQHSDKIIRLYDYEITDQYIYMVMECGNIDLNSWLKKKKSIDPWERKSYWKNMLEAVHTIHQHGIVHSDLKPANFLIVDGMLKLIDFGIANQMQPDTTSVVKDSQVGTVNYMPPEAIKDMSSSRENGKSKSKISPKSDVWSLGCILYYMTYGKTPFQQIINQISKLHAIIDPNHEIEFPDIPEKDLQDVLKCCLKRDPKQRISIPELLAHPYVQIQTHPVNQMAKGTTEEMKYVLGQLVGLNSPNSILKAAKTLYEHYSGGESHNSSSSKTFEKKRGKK
HIPK1 (human), sequence (Q86Z02 whole entry, looked up): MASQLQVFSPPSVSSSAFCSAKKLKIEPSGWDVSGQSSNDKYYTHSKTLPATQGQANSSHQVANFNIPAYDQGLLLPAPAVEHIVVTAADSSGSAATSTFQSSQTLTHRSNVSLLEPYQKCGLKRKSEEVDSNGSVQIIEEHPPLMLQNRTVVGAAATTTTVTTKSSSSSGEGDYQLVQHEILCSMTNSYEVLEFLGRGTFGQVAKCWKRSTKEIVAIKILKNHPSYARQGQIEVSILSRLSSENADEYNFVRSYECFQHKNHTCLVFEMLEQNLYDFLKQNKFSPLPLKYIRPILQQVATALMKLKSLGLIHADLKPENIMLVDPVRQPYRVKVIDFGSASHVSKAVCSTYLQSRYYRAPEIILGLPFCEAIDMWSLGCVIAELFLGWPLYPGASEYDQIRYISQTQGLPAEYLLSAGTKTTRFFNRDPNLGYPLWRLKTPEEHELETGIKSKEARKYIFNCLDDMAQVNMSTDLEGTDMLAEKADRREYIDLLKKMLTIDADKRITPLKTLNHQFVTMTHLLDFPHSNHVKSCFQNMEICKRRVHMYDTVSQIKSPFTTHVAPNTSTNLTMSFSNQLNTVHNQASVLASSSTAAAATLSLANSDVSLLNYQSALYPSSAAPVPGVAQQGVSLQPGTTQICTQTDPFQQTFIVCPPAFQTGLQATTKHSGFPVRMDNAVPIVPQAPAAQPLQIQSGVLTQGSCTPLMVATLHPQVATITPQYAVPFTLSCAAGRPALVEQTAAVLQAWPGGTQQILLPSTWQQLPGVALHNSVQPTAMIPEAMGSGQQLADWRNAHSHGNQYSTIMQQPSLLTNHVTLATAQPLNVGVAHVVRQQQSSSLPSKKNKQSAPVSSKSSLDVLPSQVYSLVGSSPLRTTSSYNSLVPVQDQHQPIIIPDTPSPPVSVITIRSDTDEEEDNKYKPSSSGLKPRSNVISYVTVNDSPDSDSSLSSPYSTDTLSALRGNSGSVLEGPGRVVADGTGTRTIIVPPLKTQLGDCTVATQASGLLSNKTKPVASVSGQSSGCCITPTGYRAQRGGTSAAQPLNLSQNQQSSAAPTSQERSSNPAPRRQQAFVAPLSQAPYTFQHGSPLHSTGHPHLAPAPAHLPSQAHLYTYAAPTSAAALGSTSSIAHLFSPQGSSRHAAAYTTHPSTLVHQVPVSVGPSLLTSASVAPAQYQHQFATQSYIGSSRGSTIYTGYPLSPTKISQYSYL
TNK1 (human), sequence (Q13470 whole entry, looked up): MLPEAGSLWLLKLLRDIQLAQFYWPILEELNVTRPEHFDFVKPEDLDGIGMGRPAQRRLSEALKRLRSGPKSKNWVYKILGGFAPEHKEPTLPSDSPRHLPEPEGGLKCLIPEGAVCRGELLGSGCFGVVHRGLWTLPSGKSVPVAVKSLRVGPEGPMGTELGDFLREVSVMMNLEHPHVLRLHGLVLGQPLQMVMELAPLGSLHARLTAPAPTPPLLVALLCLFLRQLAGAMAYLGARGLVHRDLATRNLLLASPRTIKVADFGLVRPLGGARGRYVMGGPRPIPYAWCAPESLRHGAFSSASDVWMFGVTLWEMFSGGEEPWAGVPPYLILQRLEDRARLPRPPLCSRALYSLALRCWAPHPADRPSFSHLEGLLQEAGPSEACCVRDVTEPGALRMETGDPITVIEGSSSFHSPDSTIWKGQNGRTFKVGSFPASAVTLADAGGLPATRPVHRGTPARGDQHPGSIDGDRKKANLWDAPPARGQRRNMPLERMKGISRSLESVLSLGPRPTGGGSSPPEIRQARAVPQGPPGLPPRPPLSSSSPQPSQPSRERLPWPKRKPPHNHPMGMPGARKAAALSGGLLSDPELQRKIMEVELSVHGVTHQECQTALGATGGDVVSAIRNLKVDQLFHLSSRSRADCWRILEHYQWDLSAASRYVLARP
STK33 (human), sequence (Q9BYT3 whole entry, looked up): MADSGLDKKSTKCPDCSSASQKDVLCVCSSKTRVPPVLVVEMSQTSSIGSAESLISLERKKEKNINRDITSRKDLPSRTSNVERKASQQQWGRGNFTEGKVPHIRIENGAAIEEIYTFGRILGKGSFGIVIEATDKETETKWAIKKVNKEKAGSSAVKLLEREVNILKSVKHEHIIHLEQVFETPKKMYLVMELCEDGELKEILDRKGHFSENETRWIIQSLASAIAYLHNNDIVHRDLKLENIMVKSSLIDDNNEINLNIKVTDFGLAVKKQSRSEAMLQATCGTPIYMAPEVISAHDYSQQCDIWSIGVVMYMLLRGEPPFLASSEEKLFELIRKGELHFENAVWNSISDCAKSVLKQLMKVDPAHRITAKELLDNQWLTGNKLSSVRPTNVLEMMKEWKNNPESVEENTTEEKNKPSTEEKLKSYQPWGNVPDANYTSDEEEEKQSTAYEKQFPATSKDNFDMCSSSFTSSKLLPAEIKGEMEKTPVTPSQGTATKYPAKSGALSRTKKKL

Nc1cccc(-c2cc(/C=C3\NC(=O)NC3=O)c[nH]c2=O)c1
IC50 [1]: > 10000 nM | IC50 [2]: > 10000 nM

Nc1cccc(-c2cc(/C=C3\SC(=S)NC3=O)c[nH]c2=O)c1
IC50 [1]: 100 nM | IC50 [2]: 93 nM

O=C1NC(=O)/C(=C/c2c[nH]c(=O)c(-c3ccc(N4CCNCC4)cc3)c2)S1
IC50 [1]: 52 nM | IC50 [2]: 45 nM

Nc1ccc(-c2cc(/C=C3\SC(=O)NC3=O)c[nH]c2=O)cn1
IC50 [1]: 500 nM | IC50 [2]: 351 nM

CS(=O)(=O)Nc1ccc(-c2ccc(/C=C3\SC(=N)NC3=O)o2)c(O)c1
kinase still bound, per cent of control [3]: 32% | kinase still bound, per cent of control [4]: 32% | kinase still bound, per cent of control [5]: 22% | kinase still bound, per cent of control [6]: 30% | kinase still bound, per cent of control [7]: 4.8% | kinase still bound, per cent of control [8]: 3.3% | kinase still bound, per cent of control [9]: 25% | kinase still bound, per cent of control [10]: 30% | kinase still bound, per cent of control [11]: 0.45% | kinase still bound, per cent of control [12]: 0.9% | kinase still bound, per cent of control [13]: 0.55% | kinase still bound, per cent of control [14]: 22% | kinase still bound, per cent of control [15]: 1.6% | kinase still bound, per cent of control [16]: 7.7% | IC50 [17]: 768 nM | IC50 [18]: 1920 nM

CS(=O)(=O)Nc1ccc(-c2cc(/C=C3\SC(=O)NC3=O)c[nH]c2=O)cc1
IC50 [17]: 151 nM | IC50 [18]: 214 nM | IC50 [1]: 527 nM | IC50 [2]: 258 nM

O=C1NC(=O)/C(=C/c2c[nH]c(=O)c(-c3ccc(N4CCN(Cc5ccccc5)CC4)nc3)c2)S1
IC50 [1]: 392 nM | IC50 [2]: 173 nM

COc1cc(N2CCC(O)CC2)ccc1Nc1ncc2c(n1)N(C1CCCC1)CCC(=O)N2C
kinase still bound, per cent of control [19]: 6.8% | kinase still bound, per cent of control [20]: 11% | kinase still bound, per cent of control [21]: 1.8% | kinase still bound, per cent of control [22]: 18% | Kd [23]: 28.4 nM | kinase still bound, per cent of control ([23]; compound 10.0 µM): 3.2% | kinase still bound, per cent of control [24]: 0% | kinase still bound, per cent of control [25]: 33% | kinase still bound, per cent of control [26]: 29% | kinase still bound, per cent of control [27]: 22% | kinase still bound, per cent of control [28]: 25% | kinase still bound, per cent of control [29]: 28% | kinase still bound, per cent of control [30]: 31% | kinase still bound, per cent of control [31]: 32% | kinase still bound, per cent of control [32]: 8.3% | kinase still bound, per cent of control [33]: 3% | kinase still bound, per cent of control [34]: 26% | IC50 [35]: 342 nM
